Numbers after ± are expanded uncertainties.
Details: Liquid; Closed cell (Static) method

SMILES | Normal boiling temperature
CC(O)C(=O)O (configuration not stated) [2-hydroxypropanoic acid] | 125.1 ± 0.2 °C
CC(=O)CC(C)C [4-methylpentan-2-one] | 119.2 ± 0.2 °C
